The record followed here is ChEMBL document CHEMBL3739265, “Synthesis and biological evaluation of negative allosteric modulators of the Kv11.1(hERG) channel” (Eur J Med Chem, 2015).

Data set [1] has as its target T1, Voltage-gated inwardly rectifying potassium channel KCNH2 (Homo sapiens, UniProt Q12809). Description: Binding affinity to Kv11.1 channel (unknown origin).
For data set [2], the target named is Kv11.1 (KCNH2, hERG) potassium channel (Homo sapiens, UniProt Q12809). Put plainly: Allosteric modulation of [3H]-dofetilide binding at Kv11.1 channel (unknown origin) expressed in HEK293 cells at 10 uM after 6 mins by scintillation spectrometer analysis relative to control. Type of data set: cell-based. Particulars: HEK293 cells expressing Kv11.1 channel, probe [3H]-dofetilide, read-out: Activity.
Chain of Kv11.1 (KCNH2, hERG) potassium channel (Q12809 whole entry): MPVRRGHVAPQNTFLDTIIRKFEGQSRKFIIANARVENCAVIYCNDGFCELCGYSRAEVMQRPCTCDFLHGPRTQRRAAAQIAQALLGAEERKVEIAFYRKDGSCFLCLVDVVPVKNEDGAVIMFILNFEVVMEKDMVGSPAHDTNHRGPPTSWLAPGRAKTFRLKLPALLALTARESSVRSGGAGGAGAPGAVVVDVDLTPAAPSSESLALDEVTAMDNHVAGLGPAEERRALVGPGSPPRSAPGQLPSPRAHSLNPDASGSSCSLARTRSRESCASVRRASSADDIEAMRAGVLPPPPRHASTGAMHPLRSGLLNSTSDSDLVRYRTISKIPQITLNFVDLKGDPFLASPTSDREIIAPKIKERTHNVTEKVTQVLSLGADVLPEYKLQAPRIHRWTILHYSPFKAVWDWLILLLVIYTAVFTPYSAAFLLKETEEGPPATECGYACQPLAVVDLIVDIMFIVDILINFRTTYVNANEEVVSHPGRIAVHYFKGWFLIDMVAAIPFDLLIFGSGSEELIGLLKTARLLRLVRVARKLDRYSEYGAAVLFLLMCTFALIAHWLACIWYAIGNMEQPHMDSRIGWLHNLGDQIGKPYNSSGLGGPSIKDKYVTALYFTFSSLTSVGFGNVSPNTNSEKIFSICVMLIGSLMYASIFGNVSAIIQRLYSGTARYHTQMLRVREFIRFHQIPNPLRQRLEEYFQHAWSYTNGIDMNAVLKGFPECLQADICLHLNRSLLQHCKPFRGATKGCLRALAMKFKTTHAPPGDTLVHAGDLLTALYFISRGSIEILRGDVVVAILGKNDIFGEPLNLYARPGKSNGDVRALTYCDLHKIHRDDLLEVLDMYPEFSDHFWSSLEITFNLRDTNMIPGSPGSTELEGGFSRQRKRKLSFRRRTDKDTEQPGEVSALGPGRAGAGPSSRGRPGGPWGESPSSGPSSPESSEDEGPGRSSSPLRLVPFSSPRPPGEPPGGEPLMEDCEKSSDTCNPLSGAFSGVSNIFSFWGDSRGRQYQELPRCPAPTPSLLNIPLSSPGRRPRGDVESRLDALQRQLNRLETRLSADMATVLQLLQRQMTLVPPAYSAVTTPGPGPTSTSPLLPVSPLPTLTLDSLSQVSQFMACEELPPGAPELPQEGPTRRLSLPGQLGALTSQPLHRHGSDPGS

The target of data set [3] is T1, Voltage-gated inwardly rectifying potassium channel KCNH2. Description: Allosteric modulation of Kv11.1 channel (unknown origin) expressed in HEK293 cells assessed as shift of inhibition constant for astemizole-induced displacement of [3H]-dofetilide binding at 10 uM after 1 hr relative to control. Type of data set: cell-based. Particulars: hek293, 1 h. Background: In a radioligand displacement assay an active substance lowers the binding of a labelled ligand.

Data set [4] has the same target. Description: Induction of dissociation of [3H]-dofetilide from Kv11.1 channel (unknown origin) assessed as dissociation rate expressed in HEK293 cells at 50 uM after 1 hr relative to control. Type of data set: cell-based. The settings on record: hek293, 1 h.
The target is the same in data set [5]. Put plainly: Allosteric modulation of Kv11.1 channel (unknown origin) expressed in HEK293 cells assessed as shift of inhibition constant for dofetilide-induced displacement of [3H]-dofetilide binding at 10 uM after 1 hr relative to control. Type of data set: cell-based. Particulars: hek293, 1 h.
Data set [6] has the same target. Put plainly: Induction of dissociation of [3H]-dofetilide from Kv11.1 channel (unknown origin) assessed as dissociation rate expressed in HEK293 cells after 1 hr. Type of data set: cell-based.

What is called Ki is the dissociation constant of the complex between target and ligand, obtained from inhibition or displacement. Low readings indicate a stronger hold on the target, high ones a looser hold on the target. In general, EC50 refers to the concentration that produces a half-maximal response.

T1 sequence (Q12809 whole entry): as above

Consider `O=C(COc1ccc2ccccc2c1Br)Nc1cccnc1`, for which the Ki in data set [1] was found to be 0.0048 µM. Moreover, the activity at 0.1 h, 10 µM in data set [2] was 66%. For `O=C(COc1ccc(C(=O)c2ccccc2)cc1)Nc1cccnc1`, the activity at 0.1 h, 10 µM in data set [2] was found to be 78%. Same read-out and setting: with `O=C(COc1ccc(C(=O)c2cccc(F)c2Br)cc1)Nc1cccnc1` the figure was 85%; with `O=C(COc1ccc(C(=O)c2ccc(Cl)cc2)cc1)Nc1cccnc1`, 104%.

On to `Cc1ccc(NC(=O)COc2ccc(C(=O)c3ccccc3Br)cc2)cn1`, for which the activity at 0.1 h, 10 µM in data set [2] was 105%. Same read-out and setting: in the case of `COc1ccncc1NC(=O)COc1ccc(C(=O)c2ccccc2Br)cc1` it was 105%; in that of `O=C(COc1ccc(C(=O)c2ccccc2Br)cc1)Nc1cncnc1`, 87%; in that of `Cc1ccc(C(=O)c2ccc(OCC(=O)Nc3cccnc3)cc2)cc1`, 97%. On to `O=C(COc1ccc(C(=O)c2cccc(Br)c2)cc1)Nc1cccnc1`, for which the “fold change (FC)” value in data set [3], in data set [4] and in data set [5] was 1.4 in each case. Moreover, the activity at 0.1 h, 10 µM in data set [2] is 57%. For `O=C(COc1ccc(C(=O)c2ccccc2)c(Br)c1)Nc1cccnc1`, the activity at 0.1 h, 10 µM in data set [2] amounted to 96%. For `O=C(COc1ccc(C(=O)c2cccc(Cl)c2)cc1)Nc1cccnc1`, the “fold change (FC)” value in data set [3] is reported as 2.8; in data set [4], 1.7; in data set [5], 3.3. The activity at 0.1 h, 10 µM in data set [2] was found to be 43%.

Turning to `O=C(COc1ccc(C(=O)c2ccccc2Br)cc1)Nc1ccc(Cl)nn1`, the activity at 0.1 h, 10 µM in data set [2] worked out at 92%. The same measure, in the same setting: in the case of `Cc1ccncc1NC(=O)COc1ccc(C(=O)c2ccccc2Br)cc1` it was 108%. On to `O=C(COc1ccc(C(=O)c2cccc(F)c2)cc1)Nc1cccnc1`, for which the “fold change (FC)” value in data set [3] is 1.9; in data set [4], 1.6; in data set [5] it was 1.9. For the same molecule, in data set [2], the activity at 0.1 h, 10 µM came out at 47%. With `O=C(COc1ccc(C(=O)c2cccc(I)c2)cc1)Nc1cccnc1`, in data set [2], the activity at 0.1 h, 10 µM came out at 62%. Same read-out and setting: with `O=C(COc1ccc(C(=O)c2ccccc2F)cc1)Nc1cccnc1` the figure was 85%. Regarding `O=C(COc1ccc(C(=O)c2ccccc2Br)cc1)Nc1cccnc1`, the EC50 in data set [6] came out at 12 µM. The “fold change (FC)” value in data set [3] stood at 4.1; in data set [4], 3; in data set [5] it was 2.5. The activity at 0.1 h, 10 µM in data set [2] turned out to be 44%. As to `COc1ccc(NC(=O)COc2ccc(C(=O)c3ccccc3Br)cc2)cn1`, in data set [2], the activity at 0.1 h, 10 µM was found to be 124%. Still for that read-out and setting: in the case of `O=C(COc1ccc(C(=O)c2ccc(F)cc2)cc1)Nc1cccnc1` it was 65%; in that of `COc1cncc(NC(=O)COc2ccc(C(=O)c3ccccc3Br)cc2)c1`, 107%; in that of `O=C(COc1ccc(C(=O)c2ccccc2Br)cc1)Nc1ccc(Cl)nc1`, 95%. `O=C(COc1ccc(C(=O)c2ccccc2Cl)cc1)Nc1cccnc1`: in data set [2], the activity at 0.1 h, 10 µM worked out at 71%. Same read-out and setting: with `Cc1cncc(NC(=O)COc2ccc(C(=O)c3ccccc3Br)cc2)c1` the figure was 121%; with `O=C(COc1ccc2c(c1)-c1ccccc1C2=O)Nc1cccnc1`, 79%; with `O=C(COc1ccc(C(=O)c2ccccc2Br)cc1)Nc1cnc2ccccc2c1`, 87%. On to `O=C(COc1ccc(C(=O)c2cc(F)ccc2Br)cc1)Nc1cccnc1`, for which, in data set [6], the EC50 is 4.6 µM. Also, the entries for the “fold change (FC)” value in data set [3], in data set [4] and in data set [5] were 6.3, 4.1 and 4.6, respectively. In addition, in data set [2], the activity at 0.1 h, 10 µM came to 38%. `O=C(COc1ccc(C(=O)c2ccccc2I)cc1)Nc1cccnc1`: the activity at 0.1 h, 10 µM in data set [2] stood at 72%. The same measure, in the same setting: with `O=C(COc1ccc(C(=O)c2ccccc2Br)cc1)Nc1cnccn1` the figure was 92%; with `O=C(COc1ccc(C(=O)c2ccccc2)cc1Br)Nc1cccnc1`, 96%.
